Source: patent publication US20140135526A1, “COMPOSITIONS AND METHODS FOR 3-HYDROXYPROPIONATE BIO-PRODUCTION FROM BIOMASS” (OPX Biotechnologies, Inc., priority 2007, published 2014)

Experiments:
K12 = assay type: cell-based, E. coli; settings: M9 minimal media plates with threonine, leucine, thiamine; 37 C overnight; 10 g/L beta-alanine, 1 mM IPTG, 0.2 g/L putrescine, 200 mg/L ampicillin where indicated
Method: (§1) E. coli AB354 (Δ panD) was transformed with the vector controls, pKK223, pKK223-Cterm-5×his (‘5×His’ disclosed as SEQ ID NO: 24), as well as the test vectors pKK223-mcr and pKK223-Cterm-5×His-kgd (‘5×His’ disclosed as SEQ ID NO: 24), according to standard methods described below. Each of the strains were grown overnight in LB rich media supplemented with 200 mg/L ampicillin (according to standard protocols). Following overnight growth, cells twice were harvested by centrifugation and washed by resuspension in M9 minimal media (standard protocol), diluted 1:10,000 and plated on M9 minimal media plates with 0.05 g/L threonine, 0.1 g/L leucine, 0.067 g/L thiamine, with the additional appropriate supplements, where indicated at the following concentrations (10 g/L beta-alanine (Sigma Aldrich, St. Louis, Mo.), 1 mM Isopropyl β-D-1-thiogalactopyranoside (Thermo Fisher Scientific, Fairlawn, N.J.), 0.2 g/L putrescine (MPBiomedicals, Santa Ana, Calif.), 200 mg/L ampicillin (Research Products International Corp., Mt. Prospect, Ill.) After plating, agarose plates were incubated at 37 C overnight by standard methods. […] A plus (+) indicates growth on a plate, minus (−) indicates no growth. […] Putrescine is known to induce the expression of gamma-aminobutyrate transaminase in E. coli. This enzyme has been shown in some species including Rattus norvegicus to also have beta-alanine aminotransferase activity.

[1] = test system: AB354 (ΔpanD) + pKK223-kgd; assay type: cell-based, E. coli; settings: M9 minimal media plates with threonine, leucine, thiamine; 37 C overnight; 10 g/L beta-alanine, 1 mM IPTG, 0.2 g/L putrescine, 200 mg/L ampicillin where indicated
Method: as §1

AB354 (ΔpanD) = assay type: cell-based, E. coli; settings: M9 minimal media plates with threonine, leucine, thiamine; 37 C overnight; 10 g/L beta-alanine, 1 mM IPTG, 0.2 g/L putrescine, 200 mg/L ampicillin where indicated
Method: as §1

AB354 (ΔpanD) + pKK223 = assay type: cell-based, E. coli; settings: M9 minimal media plates with threonine, leucine, thiamine; 37 C overnight; 10 g/L beta-alanine, 1 mM IPTG, 0.2 g/L putrescine, 200 mg/L ampicillin where indicated
Method: as §1

[2] = test system: AB354 (ΔpanD) + pKK223-mer; assay type: cell-based, E. coli; settings: M9 minimal media plates with threonine, leucine, thiamine; 37 C overnight; 10 g/L beta-alanine, 1 mM IPTG, 0.2 g/L putrescine, 200 mg/L ampicillin where indicated
Method: as §1

wild type E. coli K12 = assay: 3-HP toxicity (growth inhibition) in E. coli; assay type: cell-based
From the text: Previous attempts to produce 3-HP via biological pathways provide product titers which have been low and these processes have required the use of expensive, rich media. Both of these factors limit commercial feasibility and profitability. The use of rich media was necessary due to the toxicity of 3-HP when fermented with the more economical minimal media. […] Further, the fermentative pathways reported by other investigators have not addressed and resolved the toxicity mechanisms of 3-HP to the host organisms. Further to issues related to commodity chemical production, which largely relies on petroleum-based starting materials, there is an increasing need to reduce the domestic usage of petroleum and natural gas. The numerous motivating factors for this increasing need include, but are not limited to: pollutant reduction (such as greenhouse gases), environmental protection, and reducing the dependence on foreign oil. These issues not only impact fuel markets, but also the markets of numerous other products that are currently derived from oil. Biorefining promises the development of efficient biological processes allowing for the conversion of renewable sources of carbon and energy into large volume commodity chemicals.
FIG. 2 depicts 3-hydroxpropionate toxicity in E. coli K12. The minimum concentration of 3-HP that is required to inhibit visible growth after 24 hrs in minimal media is shown for wild type E. coli K12 grown in both minimal media and rich media which contains more complex nutrients.
Severe growth inhibition has been observed for extracellular 3-HP levels as low as 10 g/L in minimal media (pH 7.0), which limits the economic feasibility of 3-HP production as a platform chemical. […] However toxicity at levels below required titers (100 g/L) are still observed in rich media.

E. coli = assay: Alleviation of 3-HP toxicity by adding downstream products of the chorismate superpathway; assay type: cell-based; settings: added as supplement in the presence of 3-HP
From the text: The data shown in FIG. 4 depict identification of the chorismate superpathway as a target of 3-HP toxicity. In some embodiments, toxicity is alleviated by several processes.

## NCCC(=O)O [β-alanine, beta-alanine]
K12
  growth on plate, strain K12: +
[1]
  growth on plate, strain AB354 (ΔpanD) + pKK223-kgd: +
AB354 (ΔpanD)
  growth on plate, strain AB354 (ΔpanD): +
AB354 (ΔpanD) + pKK223
  growth on plate, strain AB354 (ΔpanD) + pKK223: +
[2]
  growth on plate, strain AB354 (ΔpanD) + pKK223-mer: +

## O=C(O)CCO [3-HP, 3-hydroxypropionate]
Wild type E. coli K12; minimal media (pH 7.0)
  extracellular 3-HP level at which severe growth inhibition is observed: ≥ 10 g/L
Wild type E. coli K12; rich media
  3-HP level at which toxicity is still observed: < 100 g/L
  product titer at which toxic effects are observed, relative to desired titers: approximately two times lower than desired titers
Wild type E. coli K12; wild type E. coli, minimal media
  3-HP level at which metabolic activity is significantly inhibited, relative to the approximate 100 g/L titer: 5-10 times lower

## O=C(O)c1ccc(O)cc1 [para-hydroxy-benzoate]
E. coli
  effect of addition on 3-HP toxicity: alleviate toxicity to a degree

## N[C@@H](Cc1ccc(O)cc1)C(=O)O [tyrosine]
E. coli
  effect of addition on 3-HP toxicity: alleviate toxicity to a degree

## Nc1ccc(C(=O)O)cc1 [para-aminobenzoate]
E. coli
  effect of addition on 3-HP toxicity: alleviate toxicity to a degree

## O=C(O)c1cccc(O)c1O [2,3-dihydroxybenzoate]
E. coli
  effect of addition on 3-HP toxicity: alleviate toxicity to a degree

## N[C@@H](Cc1ccccc1)C(=O)O [phenylalanine]
E. coli
  effect of addition on 3-HP toxicity: alleviate toxicity to a degree

## CC1(C)S[C@@H]2[C@H](NC(=O)[C@H](N)c3ccccc3)C(=O)N2[C@H]1C(=O)O [Amp, ampicillin]
K12
  growth on plate, strain K12: −
[1]
  growth on plate, strain AB354 (ΔpanD) + pKK223-kgd: −
AB354 (ΔpanD)
  growth on plate, strain AB354 (ΔpanD): −
AB354 (ΔpanD) + pKK223
  growth on plate, strain AB354 (ΔpanD) + pKK223: −
[2]
  growth on plate, strain AB354 (ΔpanD) + pKK223-mer: −
